Here are results for three molecules from paper PMC9891081 (Cell, 2022).

In assay [1] the target is rabbit Cav1.1 (rCav1.1) α1 subunit (Oryctolagus cuniculus, UniProt P07293). As to the kind of experiment: cryo-EM structure. Type of assay: binding.
Another assay concerns the target human Cav1.2 (Homo sapiens, UniProt Q13936). As to the kind of experiment: calcium influx assay in HEK293 cells. It is filed as cell-based.
For the next assay, the target named is rabbit Cav1.1 α1 subunit (rabbit, UniProt P07293 1-1873). In words: cryo-EM structure.
rabbit Cav1.1 α1 subunit, sequence (P07293 whole entry): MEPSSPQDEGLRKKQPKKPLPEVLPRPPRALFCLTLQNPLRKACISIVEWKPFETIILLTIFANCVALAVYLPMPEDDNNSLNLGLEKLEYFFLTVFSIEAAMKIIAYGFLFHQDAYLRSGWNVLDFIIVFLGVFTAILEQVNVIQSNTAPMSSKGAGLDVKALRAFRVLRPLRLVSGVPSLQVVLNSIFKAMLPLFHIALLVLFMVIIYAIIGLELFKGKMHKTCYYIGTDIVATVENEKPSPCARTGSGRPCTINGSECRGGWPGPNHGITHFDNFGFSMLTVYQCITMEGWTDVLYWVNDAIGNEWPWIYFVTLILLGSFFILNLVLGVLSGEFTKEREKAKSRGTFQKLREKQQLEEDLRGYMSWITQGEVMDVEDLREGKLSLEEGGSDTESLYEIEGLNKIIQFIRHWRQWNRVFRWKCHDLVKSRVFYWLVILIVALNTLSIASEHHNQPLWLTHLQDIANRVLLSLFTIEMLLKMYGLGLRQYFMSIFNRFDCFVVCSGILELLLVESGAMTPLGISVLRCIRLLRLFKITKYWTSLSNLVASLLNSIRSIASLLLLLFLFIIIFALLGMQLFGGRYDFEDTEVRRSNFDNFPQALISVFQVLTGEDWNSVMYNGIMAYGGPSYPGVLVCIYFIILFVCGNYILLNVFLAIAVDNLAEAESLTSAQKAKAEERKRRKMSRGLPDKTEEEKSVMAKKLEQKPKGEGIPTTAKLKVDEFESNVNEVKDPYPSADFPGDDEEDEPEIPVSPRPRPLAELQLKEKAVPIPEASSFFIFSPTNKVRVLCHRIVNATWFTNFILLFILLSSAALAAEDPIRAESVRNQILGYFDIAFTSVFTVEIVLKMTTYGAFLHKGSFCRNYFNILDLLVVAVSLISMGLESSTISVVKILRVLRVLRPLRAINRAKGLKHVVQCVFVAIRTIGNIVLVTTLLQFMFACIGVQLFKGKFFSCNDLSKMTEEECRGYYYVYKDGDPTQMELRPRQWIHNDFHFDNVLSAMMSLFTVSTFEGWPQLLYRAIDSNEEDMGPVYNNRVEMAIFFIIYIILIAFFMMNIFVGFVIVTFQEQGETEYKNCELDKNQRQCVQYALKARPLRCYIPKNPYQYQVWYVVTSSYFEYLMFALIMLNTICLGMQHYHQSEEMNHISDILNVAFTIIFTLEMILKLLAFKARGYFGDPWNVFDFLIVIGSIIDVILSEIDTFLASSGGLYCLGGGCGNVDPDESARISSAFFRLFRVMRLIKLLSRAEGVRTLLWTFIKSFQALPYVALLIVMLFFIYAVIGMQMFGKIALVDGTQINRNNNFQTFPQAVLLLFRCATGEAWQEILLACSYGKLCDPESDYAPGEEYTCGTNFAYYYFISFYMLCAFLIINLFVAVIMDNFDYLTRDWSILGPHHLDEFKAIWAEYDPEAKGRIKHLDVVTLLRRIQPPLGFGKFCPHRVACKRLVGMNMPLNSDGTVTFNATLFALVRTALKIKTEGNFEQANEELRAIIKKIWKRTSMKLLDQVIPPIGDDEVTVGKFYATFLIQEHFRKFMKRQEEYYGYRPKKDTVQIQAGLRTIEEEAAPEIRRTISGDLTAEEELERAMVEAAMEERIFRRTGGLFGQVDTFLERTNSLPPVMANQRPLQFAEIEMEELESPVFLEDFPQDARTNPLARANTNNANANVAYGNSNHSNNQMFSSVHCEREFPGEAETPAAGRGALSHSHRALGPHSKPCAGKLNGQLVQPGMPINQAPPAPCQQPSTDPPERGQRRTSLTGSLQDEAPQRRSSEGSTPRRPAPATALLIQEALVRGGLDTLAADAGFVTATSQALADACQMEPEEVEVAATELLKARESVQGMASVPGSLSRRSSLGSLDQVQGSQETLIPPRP

Some results are limits rather than exact numbers.

human Cav1.2, sequence (Q13936 whole entry): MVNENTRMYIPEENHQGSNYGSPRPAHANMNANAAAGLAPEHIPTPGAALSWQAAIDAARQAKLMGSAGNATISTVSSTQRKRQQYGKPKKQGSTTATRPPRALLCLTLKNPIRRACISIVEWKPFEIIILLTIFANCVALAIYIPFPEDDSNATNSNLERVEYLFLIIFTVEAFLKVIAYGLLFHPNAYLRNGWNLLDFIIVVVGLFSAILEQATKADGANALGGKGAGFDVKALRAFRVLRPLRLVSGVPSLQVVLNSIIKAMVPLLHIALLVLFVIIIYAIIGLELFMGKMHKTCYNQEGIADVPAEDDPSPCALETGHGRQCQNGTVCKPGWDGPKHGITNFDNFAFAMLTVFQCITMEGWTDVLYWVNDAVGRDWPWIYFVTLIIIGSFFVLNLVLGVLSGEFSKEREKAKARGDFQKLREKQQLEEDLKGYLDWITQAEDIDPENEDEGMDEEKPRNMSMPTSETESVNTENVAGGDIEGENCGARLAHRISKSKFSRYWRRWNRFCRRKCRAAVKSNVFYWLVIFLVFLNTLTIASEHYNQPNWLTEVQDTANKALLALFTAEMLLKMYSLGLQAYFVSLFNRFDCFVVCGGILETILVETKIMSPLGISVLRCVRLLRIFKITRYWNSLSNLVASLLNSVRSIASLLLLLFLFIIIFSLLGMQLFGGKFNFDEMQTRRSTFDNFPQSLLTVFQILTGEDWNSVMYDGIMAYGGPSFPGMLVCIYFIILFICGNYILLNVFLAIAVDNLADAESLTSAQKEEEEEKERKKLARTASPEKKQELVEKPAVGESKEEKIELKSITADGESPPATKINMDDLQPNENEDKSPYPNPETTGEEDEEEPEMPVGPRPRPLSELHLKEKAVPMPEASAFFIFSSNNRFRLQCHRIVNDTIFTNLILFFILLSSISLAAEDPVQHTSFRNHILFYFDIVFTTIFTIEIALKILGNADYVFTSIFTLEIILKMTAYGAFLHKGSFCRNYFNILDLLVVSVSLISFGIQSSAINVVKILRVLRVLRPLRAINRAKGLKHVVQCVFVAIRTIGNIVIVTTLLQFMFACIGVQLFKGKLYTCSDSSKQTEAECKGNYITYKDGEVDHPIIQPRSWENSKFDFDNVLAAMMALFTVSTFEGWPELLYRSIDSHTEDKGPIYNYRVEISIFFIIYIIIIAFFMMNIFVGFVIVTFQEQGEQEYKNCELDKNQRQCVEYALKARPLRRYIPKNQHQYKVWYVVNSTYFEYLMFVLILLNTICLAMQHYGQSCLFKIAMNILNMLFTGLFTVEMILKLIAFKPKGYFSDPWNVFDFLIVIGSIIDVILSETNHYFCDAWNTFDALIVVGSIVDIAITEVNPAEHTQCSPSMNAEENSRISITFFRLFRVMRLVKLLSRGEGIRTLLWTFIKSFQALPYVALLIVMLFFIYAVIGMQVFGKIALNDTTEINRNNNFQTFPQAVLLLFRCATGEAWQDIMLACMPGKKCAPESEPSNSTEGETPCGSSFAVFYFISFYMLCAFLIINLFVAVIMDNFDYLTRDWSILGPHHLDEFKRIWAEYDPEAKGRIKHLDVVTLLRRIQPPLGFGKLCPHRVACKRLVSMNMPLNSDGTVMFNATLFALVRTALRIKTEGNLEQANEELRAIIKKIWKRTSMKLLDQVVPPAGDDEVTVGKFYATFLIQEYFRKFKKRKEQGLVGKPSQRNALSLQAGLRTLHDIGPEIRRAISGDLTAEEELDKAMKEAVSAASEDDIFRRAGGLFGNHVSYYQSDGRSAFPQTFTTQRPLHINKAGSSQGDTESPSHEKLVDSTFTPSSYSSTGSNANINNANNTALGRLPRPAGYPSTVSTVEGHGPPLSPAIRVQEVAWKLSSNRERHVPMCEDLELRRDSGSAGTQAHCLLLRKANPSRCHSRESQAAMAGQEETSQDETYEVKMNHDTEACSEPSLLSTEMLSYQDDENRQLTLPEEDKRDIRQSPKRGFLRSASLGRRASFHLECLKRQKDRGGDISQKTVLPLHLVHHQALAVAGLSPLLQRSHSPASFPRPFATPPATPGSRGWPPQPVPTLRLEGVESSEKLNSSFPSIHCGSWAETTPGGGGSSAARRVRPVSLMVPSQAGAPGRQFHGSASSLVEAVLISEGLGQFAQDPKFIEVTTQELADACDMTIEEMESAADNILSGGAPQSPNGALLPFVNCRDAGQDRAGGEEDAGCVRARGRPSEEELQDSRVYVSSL

In the case of `CCCCc1oc2ccccc2c1C(=O)c1cc(I)c(OCCN(CC)CC)c(I)c1` [AMIO, amiodarone], the “cryo-EM structure (2.8 Å)” value in assay [1] was “AMIO occupies the same site as for DHP compounds, i.e., the III-IV fenestration enclosed by S5III, S6III, and S6IV”.
In general, IC50 refers to the midpoint of a concentration-inhibition curve. In the case of `C#C[C@]1(C)[C@@H](O)[C@@H](COP(=O)(N[C@@H](C)C(=O)OC(C)C)Oc2ccccc2)O[C@H]1n1ccc(=O)[nH]c1=O` (stereo partly drawn) [MNI-1], at human Cav1.2, the IC50 is greater than 100 µM.

B1: rabbit γ1 subunit (natural protein, UniProt P19518 1-222, looked up)
chain: MSPTEAPKVRVTLFCILVGIVLAMTAVVSDHWAVLSPHMENHNTTCEAAHFGLWRICTKRIALGEDRSCGPITLPGEKNCSYFRHFNPGESSEIFEFTTQKEYSISAAAISVFSLGFLIMGTICALMAFRKKRDYLLRPASMFYVFAGLCLFVSLEVMRQSVKRMIDSEDTVWIEYYYSWSFACACAAFVLLFLGGISLLLFSLPRMPQNPWESCMDAEPEH
B1: the binding result in the assay with rabbit Cav1.1 α1 subunit is given as “binds”.
